The target in one assay is EZH2 (rPRC2) (Homo sapiens, UniProt Q15910). Description: EZH2 assay: rPRC2, biotinylated oligonucleosomes, 3H SAM methyl transfer (FlashPlate scintillation). In kind it is biochemical. Particulars: biotinylated oligonucleosome substrate. The method, then: Assays were carried out by mixing rPRC2 together with biotinylated oligonucleosome substrates in the presence of the radio-labeled enzyme co-factor, S-adenosyl-1-methionine (^3H SAM) (Perkin Elmer) and monitoring the enzymatically mediated transfer of tritiated methyl groups from ^3H SAM to histone lysine residues. The amount of resulting tritiated methyl histone product was measured by first capturing the biotinylated oligonucleosomes in streptavidin (SAV) coated FlashPlates (Perkin Elmer), followed by a wash step to remove un-reacted ^3H SAM, and then counting on a TopCount NXT 384 well plate scintillation counter (Perkin Elmer). The final assay conditions for EZH2 were as follows: 50 mM Tris Buffer pH 8.5, 1 mM DTT, 69 μM Brij-35 detergent, 5.0 mM MgCl2, 0.1 mg/mL BSA, 0.2 μM ^3H SAM, 0.2 μM biotinylated oligonucleosomes, 3.6 μM H3K27 mc3 peptide and 2 nM EZH2.
A 12.5 μL volume of the HMT enzyme, H3K27me3 peptide and oligonucleosome substrate in assay buffer was added to each well of the assay plate using a Multidrop Combi (ThermoFisher). Compounds were pre-incubated with the enzyme for 20 min, followed by initiation of the methyltransferase reaction by addition of 12.5 μL of ^3H SAM in assay buffer (final volume=25 μL). The final concentrations of compounds ranged from a top default concentration of 80 μM down to 0.16 μM in ten 2-fold dilution steps. Reactions were carried out for 60 minutes and quenched with 20 μL per well of 1.96 mM SAH, 50 mM Tris pH 8.5, 200 mM EDTA. Stopped reactions were transferred to SAV coated Flashplates (Perkin Elmer), incubated for 120 min, washed with a plate washer, and then read on the TopCount NXT (1.0 min/well) to measure the amount of methyl histone product formed during the reaction.

Another assay deals with Y641N EZH2 (Homo sapiens, UniProt Q15910, Y641N). Description: Y641N EZH2 assay: as EZH2 assay, with reconstituted H3K27Me2 oligonucleosomes as substrate. In kind it is biochemical.
Where [1] appears, read: EZH2 IC50, wild-type EZH2 (rPRC2).
Where [2] appears, read: Y641N EZH2 IC50, Y641N mutant EZH2, H3K27Me2 oligonucleosome substrate.

Read-outs that look alike come from different tables or passages of the source.

Sequence of Y641N EZH2 (Q15910 whole entry Y641N): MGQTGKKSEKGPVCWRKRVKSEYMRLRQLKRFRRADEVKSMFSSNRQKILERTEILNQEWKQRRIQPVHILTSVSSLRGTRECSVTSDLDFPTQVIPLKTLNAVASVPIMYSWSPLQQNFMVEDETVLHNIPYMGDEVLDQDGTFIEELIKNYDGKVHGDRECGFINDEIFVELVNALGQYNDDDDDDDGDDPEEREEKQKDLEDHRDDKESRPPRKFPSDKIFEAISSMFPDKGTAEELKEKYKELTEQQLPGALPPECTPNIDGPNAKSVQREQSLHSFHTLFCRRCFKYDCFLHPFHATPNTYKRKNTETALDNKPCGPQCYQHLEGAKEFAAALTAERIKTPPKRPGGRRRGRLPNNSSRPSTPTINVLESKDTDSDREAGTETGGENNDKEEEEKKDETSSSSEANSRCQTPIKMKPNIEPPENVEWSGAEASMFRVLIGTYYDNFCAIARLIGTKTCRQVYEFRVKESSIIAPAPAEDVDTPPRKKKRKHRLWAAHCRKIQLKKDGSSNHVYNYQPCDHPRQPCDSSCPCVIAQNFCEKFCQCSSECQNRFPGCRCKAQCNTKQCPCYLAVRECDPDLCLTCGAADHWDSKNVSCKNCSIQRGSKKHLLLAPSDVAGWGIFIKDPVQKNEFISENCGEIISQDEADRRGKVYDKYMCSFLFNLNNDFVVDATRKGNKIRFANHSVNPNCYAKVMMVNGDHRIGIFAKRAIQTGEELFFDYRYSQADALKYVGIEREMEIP
Sequence of Y641N EZH2 (O75530 whole entry partner): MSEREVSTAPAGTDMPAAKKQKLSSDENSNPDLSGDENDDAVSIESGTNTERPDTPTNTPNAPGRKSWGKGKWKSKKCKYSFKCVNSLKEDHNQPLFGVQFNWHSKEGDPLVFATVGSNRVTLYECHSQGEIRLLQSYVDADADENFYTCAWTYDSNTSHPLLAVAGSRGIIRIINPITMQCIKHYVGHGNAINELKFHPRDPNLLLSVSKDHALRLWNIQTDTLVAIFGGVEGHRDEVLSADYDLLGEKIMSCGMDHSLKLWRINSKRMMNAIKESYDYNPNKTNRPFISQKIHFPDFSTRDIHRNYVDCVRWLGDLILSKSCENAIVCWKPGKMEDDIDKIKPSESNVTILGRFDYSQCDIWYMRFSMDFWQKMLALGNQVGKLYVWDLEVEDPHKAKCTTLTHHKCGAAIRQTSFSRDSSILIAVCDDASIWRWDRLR
Sequence of Y641N EZH2 (Q15022 whole entry partner): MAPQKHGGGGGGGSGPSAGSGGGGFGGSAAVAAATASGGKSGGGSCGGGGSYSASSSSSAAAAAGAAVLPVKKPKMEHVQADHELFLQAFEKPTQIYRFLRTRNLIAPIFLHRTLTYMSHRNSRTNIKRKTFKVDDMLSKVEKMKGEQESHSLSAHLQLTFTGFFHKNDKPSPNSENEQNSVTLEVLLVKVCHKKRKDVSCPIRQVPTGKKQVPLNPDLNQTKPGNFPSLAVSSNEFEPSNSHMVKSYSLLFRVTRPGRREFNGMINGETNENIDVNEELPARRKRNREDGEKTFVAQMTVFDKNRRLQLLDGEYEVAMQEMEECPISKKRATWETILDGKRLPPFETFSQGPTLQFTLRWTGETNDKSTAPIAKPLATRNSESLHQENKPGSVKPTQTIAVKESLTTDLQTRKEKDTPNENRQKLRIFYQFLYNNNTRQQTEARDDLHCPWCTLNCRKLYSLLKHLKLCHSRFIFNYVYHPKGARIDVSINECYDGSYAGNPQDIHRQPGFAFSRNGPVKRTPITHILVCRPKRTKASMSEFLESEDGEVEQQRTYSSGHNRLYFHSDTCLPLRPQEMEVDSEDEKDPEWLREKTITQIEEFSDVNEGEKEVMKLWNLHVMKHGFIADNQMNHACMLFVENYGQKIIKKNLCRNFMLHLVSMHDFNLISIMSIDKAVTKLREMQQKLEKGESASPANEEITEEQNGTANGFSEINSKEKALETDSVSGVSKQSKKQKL
Sequence of EZH2 (rPRC2) (Q15910 whole entry): as the sequence (Q15910 whole entry Y641N) above, with N641Y counted along it
Sequence of EZH2 (rPRC2) (O75530 whole entry partner): as the sequence (O75530 whole entry partner) above
Sequence of EZH2 (rPRC2) (Q15022 whole entry partner): as the sequence (Q15022 whole entry partner) above

`Cc1cc(C)c(COC(=O)c2c(C)n(C3CCc4ccccc43)c3ccccc23)c(=O)[nH]1` (single isomer, unassigned) [Compound 213, (R or S)-(4,6-dimethyl-2-oxo-1,2-dihydropyridin-3-yl)methyl 1-(2,3-dihydro-1H-inden-1-yl)-2-methyl-1H-indole-3-carboxylate]: the IC50 against EZH2 (rPRC2) (setting [1]) is less than 100 nM; at Y641N EZH2 (setting [2]) it was 100 to 1000 nM.

Regarding `COCC(C)n1c(C)c(C(=O)NCc2c(OC)cc(C)[nH]c2=O)c2ccccc21` (single isomer, unassigned) [Compound 223, N-((4-methoxy-6-methyl-2-oxo-1,2-dihydropyridin-3-yl)methyl)-1-(1-methoxypropan-2-yl)-2-methyl-1H-indole-3-carboxamide], the IC50 at EZH2 (rPRC2) (setting [1]) was less than 100 nM; on Y641N EZH2 (setting [2]), 100 to 1000 nM.

In the case of `Cc1cc(C)c(CNC(=O)c2c(C)n(C(C)c3cccc(C(N)=O)c3)c3ccccc23)c(=O)[nH]1` (single isomer, unassigned) [Compound 225, (R or S)-1-(1-(3-carbamoylphenyl)ethyl)-N-((4,6-dimethyl-2-oxo-1,2-dihydropyridin-3-yl)methyl)-2-methyl-1H-indole-3-carboxamide], the IC50 on EZH2 (rPRC2) (setting [1]) and against Y641N EZH2 (setting [2]) was less than 100 nM throughout.

Take `Cc1cc(C)c(CNC(=O)c2c(C)n(C(C)c3cccc(C(N)=O)c3)c3ccccc23)c(=O)[nH]1` (single isomer, unassigned) [Compound 226, (R or S)-1-(1-(3-carbamoylphenyl)ethyl)-N-((4,6-dimethyl-2-oxo-1,2-dihydropyridin-3-yl)methyl)-2-methyl-1H-indole-3-carboxamide]: the IC50 against EZH2 (rPRC2) (setting [1]) lay in the range of 100 to 1000 nM; on Y641N EZH2 (setting [2]), 1000 to 10000 nM.

For the compound `Cc1cc(C)c(CNC(=O)c2c(C)n(C(C)c3cccc(C#N)c3)c3ccccc23)c(=O)[nH]1` (single isomer, unassigned) [Compound 228, (R or S)-1-(1-(3-cyanophenyl)ethyl)-N-((4,6-dimethyl-2-oxo-1,2-dihydropyridin-3-yl)methyl)-2-methyl-1H-indole-3-carboxamide], the IC50 on EZH2 (rPRC2) (setting [1]) and at Y641N EZH2 (setting [2]) was 100 to 1000 nM in each case.

Take `Cc1cc(C)c(CNC(=O)c2c(C)n(C(C)c3ccccc3)c3cnccc23)c(=O)[nH]1` (single isomer, unassigned) [Compound 247, (R or S)—N-((4,6-dimethyl-2-oxo-1,2-dihydropyridin-3-yl)methyl)-2-methyl-1-(1-phenylethyl)-1H-pyrrolo[2,3-c]pyridine-3-carboxamide]: the IC50 against EZH2 (rPRC2) (setting [1]) and at Y641N EZH2 (setting [2]) was less than 100 nM throughout.

In the case of `Cc1cc(C)c(CNC(=O)c2c(C)n(C(C)c3ccccc3)c3cnccc23)c(=O)[nH]1` (single isomer, unassigned) [Compound 248, (R or S)—N-((4,6-dimethyl-2-oxo-1,2-dihydropyridin-3-yl)methyl)-2-methyl-1-(1-phenylethyl)-1H-pyrrolo[2,3-c]pyridine-3-carboxamide], the concentration for half-maximal inhibition (IC50) on EZH2 (rPRC2) (read-out: EZH2 IC50, wild-type EZH2 (rPRC2)) was less than 100 nM; at Y641N EZH2 (setting [2]), 100 to 1000 nM.

With `Cc1cc(C)c(CNC(=O)c2c(C)n(C(C)C3CC3)c3ncccc23)c(=O)[nH]1` (single isomer, unassigned) [Compound 252, (R or S)-(±)-1-(1-cyclopropylethyl)-N-((4,6-dimethyl-2-oxo-1,2-dihydropyridin-3-yl)methyl)-2-methyl-1H-pyrrolo[2,3-b]pyridine-3-carboxamide], the IC50 at EZH2 (rPRC2) (setting [1]) was less than 100 nM; against Y641N EZH2 (setting [2]) it was 100 to 1000 nM.

On to `COCC(C)n1c(C)c(C(=O)NCc2c(OC)cc(C)[nH]c2=O)c2cccnc21` (single isomer, unassigned) [Compound 257, (R or S)-N-((4-methoxy-6-methyl-2-oxo-1,2-dihydropyridin-3-yl)methyl)-1-(1-methoxypropan-2-yl)-2-methyl-1H-pyrrolo[2,3-b]pyridine-3-carboxamide], for which the results for the IC50 at EZH2 (rPRC2) (setting [1]) and against Y641N EZH2 (setting [2]) were 100 to 1000 nM and 1000 to 10000 nM, respectively.

For the compound `COc1cc(C)[nH]c(=O)c1CNC(=O)c1c(C)n(C(C)C(C)OC)c2ncccc12` (single isomer, unassigned) [Compound 267, N-((4-methoxy-6-methyl-2-oxo-1,2-dihydropyridin-3-yl)methyl)-1-((2R or 2S, 3R or 3S)-3-methoxybutan-2-yl)-2-methyl-1H-pyrrolo[2,3-b]pyridine-3-carboxamide], the half-maximal inhibitory concentration (IC50) on EZH2 (rPRC2) (wild-type EZH2 (rPRC2), read-out: EZH2 IC50) was less than 100 nM; at Y641N EZH2 (Y641N mutant EZH2, H3K27Me2 oligonucleosome substrate, read-out: Y641N EZH2 IC50) it was 100 to 1000 nM.

`COc1cc(C)[nH]c(=O)c1CNC(=O)c1c(C)n(C(C)c2ccn(C)c(=O)c2)c2ncccc12` (single isomer, unassigned) [Compound 268, (R or S)-N-((4-methoxy-6-methyl-2-oxo-1,2-dihydropyridin-3-yl)methyl)-2-methyl-1-(1-(1-methyl-2-oxo-1,2-dihydropyridin-4-yl)ethyl)-1H-pyrrolo[2,3-b]pyridine-3-carboxamide]: the values for the half-maximal inhibitory concentration (IC50) against EZH2 (rPRC2) (setting [1]) and against Y641N EZH2 (setting [2]) were less than 100 nM and 100 to 1000 nM, respectively.

Turning to `COc1cc(C)[nH]c(=O)c1CNC(=O)c1c(C)n(C(C)c2ccn(C)c(=O)c2)c2ncccc12` (single isomer, unassigned) [Compound 269, (R or S)-N-((4-methoxy-6-methyl-2-oxo-1,2-dihydropyridin-3-yl)methyl)-2-methyl-1-(1-(1-methyl-2-oxo-1,2-dihydropyridin-4-yl)ethyl)-1H-pyrrolo[2,3-b]pyridine-3-carboxamide], the half-maximal inhibitory concentration (IC50) was 100 to 1000 nM on EZH2 (rPRC2) (setting [1]) and 1000 to 10000 nM at Y641N EZH2 (setting [2]).

`COc1cc(C)[nH]c(=O)c1CNC(=O)c1c(C)n(C(C)CS(C)(=O)=O)c2ccccc12` (single isomer, unassigned) [Compound 278, (R or S)-N-((4-methoxy-6-methyl-2-oxo-1,2-dihydropyridin-3-yl)methyl)-2-methyl-1-(1-(methylsulfonyl)propan-2-yl)-1H-indole-3-carboxamide]: the values for the half-maximal inhibitory concentration (IC50) on EZH2 (rPRC2) (setting [1]) and against Y641N EZH2 (setting [2]) were 100 to 1000 nM and 1000 to 10000 nM, respectively.

For `COc1cc(C)[nH]c(=O)c1CNC(=O)c1c(C)n([C@H](C)[C@H](OC)C2CC2)c2ncccc12` (single isomer, unassigned) [Compound 285, 1-((1R or S, 2R or S)-1-cyclopropyl-1-methoxypropan-2-yl)-N-((4-methoxy-6-methyl-2-oxo-1,2-dihydropyridin-3-yl)methyl)-2-methyl-1H-pyrrolo[2,3-b]pyridine-3-carboxamide], the IC50 at EZH2 (rPRC2) (setting [1]) lay in the range of 100 to 1000 nM; at Y641N EZH2 (setting [2]), 1000 to 10000 nM.

As for `COc1cc(C)[nH]c(=O)c1CNC(=O)c1c(C)n([C@H](C)[C@H](OC)C2CC2)c2ncccc12` (single isomer, unassigned) [Compound 292, 1-((1R or S, 2R or S)-1-cyclopropyl-1-methoxypropan-2-yl)-N-((4-methoxy-6-methyl-2-oxo-1,2-dihydropyridin-3-yl)methyl)-2-methyl-1H-pyrrolo[2,3-b]pyridine-3-carboxamide], the figures for the IC50 against EZH2 (rPRC2) (setting [1]) and against Y641N EZH2 (setting [2]) were less than 100 nM and 100 to 1000 nM, respectively.

`COc1cc(C)[nH]c(=O)c1CNC(=O)c1c(C)n(C(C)C(C)OC)c2ncccc12` (single isomer, unassigned) [Compound 302, N-((4-methoxy-6-methyl-2-oxo-1,2-dihydropyridin-3-yl)methyl)-1-((2R or 2S, 3R or 3S)-3-methoxybutan-2-yl)-2-methyl-1H-pyrrolo[2,3-b]pyridine-3-carboxamide]: the IC50 was in the range of 100 to 1000 nM on EZH2 (rPRC2) (setting [1]) and 1000 to 10000 nM at Y641N EZH2 (setting [2]).

Regarding `COc1cc(C)[nH]c(=O)c1CNC(=O)c1c(C)n(C(C)C2CCS(=O)(=O)CC2)c2ccccc12` (single isomer, unassigned) [Compound 305, (R or S)-1-(1-(1,1-dioxidotetrahydro-2H-thiopyran-4-yl)ethy1)-N-((4-methoxy-6-methyl-2-oxo-1,2-dihydropyridin-3-yl)methy1)-2-methyl-1H-indole-3-carboxamide], the IC50 is less than 100 nM against EZH2 (rPRC2) (setting [1]) and 100 to 1000 nM at Y641N EZH2 (setting [2]).

Regarding `COc1cc(C)[nH]c(=O)c1CNC(=O)c1c(C)n(C(C)C(C)OC)c2ccccc12` (single isomer, unassigned) [Compound 307, Trans-(R or S, R or S)-N-((4-methoxy-6-methyl-2-oxo-1,2-dihydropyridin-3-yl)methyl)-1-(3-methoxybutan-2-yl)-2-methyl-1H-indole-3-carboxamide], the IC50 against EZH2 (rPRC2) (setting [1]) and against Y641N EZH2 (setting [2]) was less than 100 nM each time.

Turning to `COc1cc(C)[nH]c(=O)c1CNC(=O)c1c(C)n(C(C)C(C)OC)c2ccccc12` (single isomer, unassigned) [Compound 308, Trans-(R or S, R or S)-N-((4-methoxy-6-methyl-2-oxo-1,2-dihydropyridin-3-yl)methyl)-1-(3-methoxybutan-2-yl)-2-methyl-1H-indole-3-carboxamide], the 50% inhibitory concentration (IC50) against EZH2 (rPRC2) (setting [1]) and at Y641N EZH2 (setting [2]) was 100 to 1000 nM in each case.

For the origin of these results see patent US9371331B2, “Modulators of methyl modifying enzymes, compositions and uses thereof” (Constellation Pharmaceuticals, Inc., priority 2012, dated 2016).
